Source: US20070015132A1 (priority 2001, published 2007)

Columns and labels:
[1] = system: Mouse fibroblast cells (ATCC CRL-10225); test: Glucose and lactate metabolic rate of fibroblast cells exposed to toxicants in 24-well plate; settings: 6 hours; for glucose metabolic rate / lactate metabolic rate: different concentrations; for cell death on exposure: trypan blue exclusion
[2] = system: Mouse fibroblast cells (ATCC CRL-10225); assay type: cell-based

Row | Compound | glucose metabolic rate [1] | lactate metabolic rate [1] | cell death on exposure ([1]; concentration 10 mM) | cell death on exposure [1] | effect on medium acidification rate at low concentrations [2] | effect on medium acidification rate with concentration increasing [2]
1 | [F-].[Na+] [fluoride, sodium fluoride] | inhibited in concentration dependent manner | inhibited in concentration dependent manner | all cells died | – | – | –
2 | O=[N+]([O-])c1ccc(O)c([N+](=O)[O-])c1 [2,4-dinitrophenol] | opposite impact | opposite impact | – | not observed | stimulate | stimulation effects become weak until inhibition effects are observed
